Test results taken from PubChem BioAssay AID2060502 (Molecular Pharmacology Branch, DTP, NCI, 2025).
Several values for one entry are separate records, joined by “and”; a condition that tells them apart may be missing. Equal values may be shown once.

Test system: 885724-159-R-J1-PDC complex spheroid viability
Experiment: Anticancer human tumor 885724-159-R-J1-PDC patient-derived pancreatic adenocarcinoma cell line growth inhibition [GQUAD]
Details: for viability, T/C: stronger effect = lower value
Description: DNA G-quadruplex Stabilizer Agents in Combinations in Complex Spheroids
A high-throughput screen of multi-cell type tumor spheroids was designed to identify active combinations of DNA G-quadruplex stabilizer agents and targeted small molecules. Complex spheroids include a stromal component modeled by human endothelial cells (HUVEC) and fibroblasts modeled by human mesenchymal stem cells (MSCs). The concentration ranges selected for each drug and investigational agent were based upon clinically achievable concentrations if the clinical Cmax of the agent was known.
Compounds. The drugs and investigational agents: pidnarulex (CX-5461; NSC782164), APTO-253 (NSC789042), BRACO-19 (NSC847499), peposertib (NSC802822), ceralasertib (NSC780249), elimusertib (NSC800525), camonsertib (NSC841442), AZD-1390 (NSC803789), olaparib (NSC753686), talazoparib (NSC767125), ART-558 (NSC835418), sotorasib (NSC818433), MRTX-1133 (NSC836407), SN-38 (NSC673596), topotecan (NSC609699), etoposide (NSC141540), doxorubicin (NSC123127), gemcitabine (NSC613327), 5-fluorouracil (NSC19893), paclitaxel (NSC125973), vemurafenib (NSC761431), panobinostat (NSC761190), R-306465 (JNJ-16241199; NSC773264), adavosertib (NSC754352), TP-3654 (NSC805149), carboplatin (NSC241240), KSQ-4279 (NSC840948), and staurosporine (NSC755774) were obtained from the National Cancer Institute (NCI) Developmental Therapeutics Program Chemical Repository (34). The FDA-approved anticancer drug set is available from the NCI Developmental Therapeutics Program. […] The stock solutions were prepared in dimethyl sulfoxide (DMSO, Sigma-Aldrich, St. Louis, MO, cat. D2650) at 800-fold the tested concentration and stored at -70 degrees C prior to their use. All drugs and investigational agents were tested over a range starting from a high concentration at or near the clinical Cmax and decreasing in half-log increments. If the clinical Cmax for an agent had not been determined, the highest concentration tested was 10 microM.
2.3 Cell Culture. All cells were maintained in an incubator at 37 degrees C and 5% CO2 with 95% humidity. The PDC lines were cultured according to standard operating procedures established by the NCI PDMR. All PDCs were thawed and cultured in Matrigel-coated flasks prepared with a working solution of 1X Ham's F-12 nutrient mix, without supplementation (Invitrogen, cat. 11765054), 100 U/mL penicillin-streptomycin (Invitrogen, cat. 15140122), and 2.5% Matrigel (Corning Inc., cat. 354248) for the first three passages. The 857933-349-R-J2-PDC line was cultured in 6C/Colon 1B media, which includes advanced DMEM/F-12 (Thermo Fisher Scientific, cat. 12634028), 10 mM HEPES (Thermo Fisher Scientific, cat. 15630080), 1X GlutaMAX supplement (Thermo Fisher Scientific, cat. 35050061), 0.1 mg/mL primocin (InvivoGen, cat. ant-pm-2), 10% defined fetal bovine serum, heat inactivated (HyClone Laboratories Inc., cat. SH30070.03HI), 50% L-WRN conditioned media (ATCC, cat. CRL-3276), 1.25 mM N-Acetyl-L-cysteine (Sigma-Aldrich, cat. A9165), 10 mM nicotinamide (Sigma-Aldrich, cat. N0636), 1X B-27 supplement (Thermo Fisher Scientific, cat. 17504044), 1X N-2 supplement (Thermo Fisher Scientific, cat. 17502048), 10 microM Y-27632 dihydrochloride (Tocris Bioscience, cat. 1254), and 50 ng/mL human EGF recombinant protein (Thermo Fisher Scientific, cat. PHG0311). The 485176-168-R4-J1-PDC line was cultured in Panc media, which includes all 6C/Colon 1B media components plus 100 ng/mL human FGF-10 (Thermo Fisher Scientific, cat. 100-26), 500 nM SB-431542 (Selleckchem, cat. S1067), and gastrin (Tocris, cat. 3006).
[…]
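Further: spheroids exposed to agents for seven days before readout.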
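Wherever viability, T/C is given: percent of vehicle control viability where 100% = DMSO wells.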

`CC1COCCN1c1cc(-c2ccnn2C)c2ccnc(-c3ccn[nH]3)c2n1` (stereo unspecified) was tested, and the viability, T/C (compound 0.0316 µM) was 104% and 98% and 79.1%, the viability, T/C (compound 0.1 µM) was 93% and 80.3% and 83.4% and the viability, T/C (compound 0.316 µM) was 83.2% and 68.7% and 75%. The viability, T/C (compound 1 µM) was 69.1% and 67.7% and 69.3%, the viability, T/C (compound 3.16 µM) was 58.6% and 51.1% and 45.9% and the viability, T/C (compound 10 µM) was 45.6% and 52.2% and 42.1%. The IC50 (curve of compound) was 6.76 µM and > 10 µM and 2.65 µM.

In the case of `CC[C@@]1(O)C(=O)OCc2c1cc1n(c2=O)Cc2cc3c(CN(C)C)c(O)ccc3nc2-1`, the viability, T/C (compound 0.000999 µM) is reported as 86.3% and 93.6% and 89.6%, the viability, T/C (compound 0.00316 µM) is reported as 104% and 87.4% and 88.3% and the viability, T/C (compound 0.00999 µM) is reported as 99.2% and 92.9% and 93%. For the same compound, the viability, T/C (compound 0.0316 µM) was 80.8% and 92.5% and 101%, the viability, T/C (compound 0.0999 µM) was 85.6% and 74.7% and 90.8% and the viability, T/C (compound 0.316 µM) was 74.5% and 64.7% and 71.3%. For the same compound, the IC50 (curve of compound) was greater than 0.316 µM.

`COc1ccc([C@@H](O)c2cc(-c3ncnc4cc(N5CCOCC5)ccc34)c(F)cc2Cl)nn1` + Cc1[nH]c2ccc(F)cc2c1-c1nc2c3cccnc3c3ncccc3c2[nH]1 gave an IC50 (curve of first compound, second compound 0.0316 µM) of 6.88 µM, an IC50 (curve of first compound, second compound 0.1 µM) of 5.43 µM and an IC50 (curve of first compound, second compound 0.316 µM) of 5.28 µM. The IC50 (curve of first compound, second compound 1 µM) was 3.28 µM, the IC50 (curve of first compound, second compound 3.16 µM) was less than 0.0316 µM and the IC50 (curve of first compound, second compound 10 µM) was 3.51 µM. The viability, T/C (second compound 0.0316 µM, first compound 0.0316 µM) was 101%, the viability, T/C (second compound 0.0316 µM, first compound 0.1 µM) was 110% and the viability, T/C (second compound 0.0316 µM, first compound 0.316 µM) was 108%. It also gave a viability, T/C (second compound 0.0316 µM, first compound 1 µM) of 94%, a viability, T/C (second compound 0.0316 µM, first compound 3.16 µM) of 68.5% and a viability, T/C (second compound 0.0316 µM, first compound 10 µM) of 41.2%. The viability, T/C (second compound 0.1 µM, first compound 0.0316 µM) was 99%, the viability, T/C (second compound 0.1 µM, first compound 0.1 µM) was 97% and the viability, T/C (second compound 0.1 µM, first compound 0.316 µM) was 90.5%. For the same compound, the viability, T/C (second compound 0.1 µM, first compound 1 µM) was 82.3%, the viability, T/C (second compound 0.1 µM, first compound 3.16 µM) was 57.7% and the viability, T/C (second compound 0.1 µM, first compound 10 µM) was 40.5%. The viability, T/C (second compound 0.316 µM, first compound 0.0316 µM) was 92%, the viability, T/C (second compound 0.316 µM, first compound 0.1 µM) was 97.8% and the viability, T/C (second compound 0.316 µM, first compound 0.316 µM) was 83.6%. The viability, T/C (second compound 0.316 µM, first compound 1 µM) was 65.7%, the viability, T/C (second compound 0.316 µM, first compound 3.16 µM) was 66.5% and the viability, T/C (second compound 0.316 µM, first compound 10 µM) was 36.2%. The viability, T/C (second compound 1 µM, first compound 0.0316 µM) was 76.1%, the viability, T/C (second compound 1 µM, first compound 0.1 µM) was 71.1% and the viability, T/C (second compound 1 µM, first compound 0.316 µM) was 82.8%. For the same compound, the viability, T/C (second compound 1 µM, first compound 1 µM) was 68.5%, the viability, T/C (second compound 1 µM, first compound 3.16 µM) was 51% and the viability, T/C (second compound 1 µM, first compound 10 µM) was 34.3%. The viability, T/C (second compound 3.16 µM, first compound 0.0316 µM) was 47.5%, the viability, T/C (second compound 3.16 µM, first compound 0.1 µM) was 46.3% and the viability, T/C (second compound 3.16 µM, first compound 0.316 µM) was 51.2%. For the same compound, the viability, T/C (second compound 3.16 µM, first compound 1 µM) was 39.5%, the viability, T/C (second compound 3.16 µM, first compound 3.16 µM) was 33.7% and the viability, T/C (second compound 3.16 µM, first compound 10 µM) was 28.3%. For the same compound, the viability, T/C (second compound 10 µM, first compound 0.0316 µM) was 72.4%, the viability, T/C (second compound 10 µM, first compound 0.1 µM) was 75.6% and the viability, T/C (second compound 10 µM, first compound 0.316 µM) was 62.6%. The viability, T/C (second compound 10 µM, first compound 1 µM) was 63.4%, the viability, T/C (second compound 10 µM, first compound 3.16 µM) was 52.9% and the viability, T/C (second compound 10 µM, first compound 10 µM) was 32.8%.
